In data set [1] the test system is Botrytis cinerea. The experiment in a line: Fungicidal activity against benzimidazole-resistant Botryotinia fuckeliana infected kidney bean leaf at 100 ppm after 7 days in greenhouse conditions by detached leaf test. The class given is functional.
The subject of data set [2] is Botrytis cinerea. The experiment in a line: Fungicidal activity against benzimidazole-resistant Botryotinia fuckeliana at 200 ppm after 48 hr by poisoned food technique. The class given is functional.
Data set [3] deals with Botrytis cinerea. The experiment in a line: Fungicidal activity against benzimidazole-resistant Botryotinia fuckeliana at 6.2 ppm after 48 hr by poisoned food technique. The class given is functional.
Data set [4] concerns Botrytis cinerea. The experiment in a line: Fungicidal activity against benzimidazole-resistant Botryotinia fuckeliana at 25 ppm after 48 hr by poisoned food technique. The class given is functional.
A further data set has as its system Phaseolus vulgaris. The experiment in a line: Phytotoxicity against Phaseolus vulgaris (kidney bean) assessed as necrosis of leaf at 100 ppm after 7 days in greenhouse conditions. In kind it is organism-based. The conditions noted are these: in vivo, 168 h.

Each structure is given as a SMILES string.

Take `CCO/N=C/Nc1cc(C)cc(C)c1OCC` [N'-ETHOXY-N-(2-ETHOXY-3,5-DIMETHYLPHENYL)FORMIMIDAMIDE]: the Activity was less than 25% in the data set on Botrytis cinerea [1]; 100% in the data set on Botrytis cinerea [2]; 50% in the data set with Botrytis cinerea [3]; 100% in the data set with Botrytis cinerea [4]; “Non-toxic” with Phaseolus vulgaris.
As for `CCO/N=C/Nc1c(Cl)cc(Cl)cc1Cl` [N'-ETHOXY-N-(2,4,6-TRICHLOROPHENYL)FORMIMIDAMIDE], the Activity with Botrytis cinerea [1] is on record as less than 25%; in the data set on Botrytis cinerea [2] it was 100%; in the data set on Botrytis cinerea [3] it was less than 25%; in the data set on Botrytis cinerea [4], less than 25%; in the data set on Phaseolus vulgaris it was 11%.
As for `CCO/N=C/Nc1ccc(Cl)c(Cl)c1`, the Activity with Botrytis cinerea [1] is less than 25%; in the data set with Botrytis cinerea [2] it was 70%; in the data set on Botrytis cinerea [3], less than 25%; in the data set with Botrytis cinerea [4], less than 25%; in the data set with Phaseolus vulgaris it was 11%.
Take `CCO/N=C/Nc1cc(Cl)ccc1OCC` [N-(5-CHLORO-2-ETHOXYPHENYL)-N'-ETHOXYFORMIMIDAMIDE]: the Activity with Botrytis cinerea [1] is on record as less than 25%; in the data set on Botrytis cinerea [2] it was 100%; in the data set on Botrytis cinerea [3] it was less than 25%; with Botrytis cinerea [4], 100%; with Phaseolus vulgaris it was “<= 10%”.
In the case of `CCO/N=C/Nc1ccc(OCC)cc1C` [N'-ETHOXY-N-(4-ETHOXY-2-METHYLPHENYL)FORMIMIDAMIDE], the Activity was less than 25% in the data set with Botrytis cinerea [1]; less than 25% in the data set with Botrytis cinerea [2]; less than 25% in the data set on Botrytis cinerea [3]; less than 25% with Botrytis cinerea [4]; “<= 10%” in the data set with Phaseolus vulgaris.
`CCO/N=C/Nc1cc(Cl)cc(Cl)c1OCC` [N-(3,5-DICHLORO-2-ETHOXYPHENYL)-N'-ETHOXYFORMIMIDAMIDE]: the Activity was less than 25% in the data set on Botrytis cinerea [1]; 100% in the data set with Botrytis cinerea [2]; 70% with Botrytis cinerea [3]; 90% with Botrytis cinerea [4]; “Non-toxic” in the data set on Phaseolus vulgaris.
On to `CCO/N=C/Nc1cc(Cl)c(Cl)c(Cl)c1` [N'-ETHOXY-N-(3,4,5-TRICHLOROPHENYL)FORMIMIDAMIDE], for which the Activity in the data set with Botrytis cinerea [1] was less than 25%; in the data set with Botrytis cinerea [2], 26%; in the data set with Botrytis cinerea [3], less than 25%; with Botrytis cinerea [4], less than 25%; in the data set with Phaseolus vulgaris it was “Non-toxic”.
Regarding `CCO/N=C/Nc1cc(C)c(OCC)c(C)c1` [N'-ETHOXY-N-(4-ETHOXY-3,5-DIMETHYLPHENYL)FORMIMIDAMIDE], the Activity in the data set on Botrytis cinerea [1] was 50%; in the data set with Botrytis cinerea [2], 100%; in the data set with Botrytis cinerea [3], 50%; with Botrytis cinerea [4], 100%; with Phaseolus vulgaris it was “<= 10%”.
With `CCO/N=C/Nc1cccc(Cl)c1Cl`, the Activity in the data set on Botrytis cinerea [1] was less than 25%; with Botrytis cinerea [2] it was 100%; in the data set on Botrytis cinerea [3], less than 25%; in the data set with Botrytis cinerea [4] it was less than 25%; in the data set with Phaseolus vulgaris, 11%.
On to `CCO/N=C/Nc1ccc(OCC)cc1`, for which the Activity in the data set on Botrytis cinerea [1] is less than 25%; in the data set on Botrytis cinerea [2], 50%; with Botrytis cinerea [3] it was less than 25%; in the data set on Botrytis cinerea [4], less than 25%; in the data set on Phaseolus vulgaris it was “Non-toxic”.
`CCO/N=C/Nc1cc(OCC)c(OCC)c(OCC)c1` [N'-ETHOXY-N-(3,4,5-TRIETHOXYPHENYL)FORMIMIDAMIDE]: the Activity with Botrytis cinerea [1] was less than 25%; in the data set with Botrytis cinerea [2], 100%; in the data set on Botrytis cinerea [3] it was less than 25%; in the data set on Botrytis cinerea [4], 26%; in the data set with Phaseolus vulgaris it was “Non-toxic”.
Regarding `CCO/N=C/Nc1ccccc1`, the Activity in the data set on Botrytis cinerea [1] was less than 25%; in the data set with Botrytis cinerea [2], less than 25%; in the data set with Botrytis cinerea [3], less than 25%; in the data set with Botrytis cinerea [4] it was less than 25%; in the data set on Phaseolus vulgaris it was “Non-toxic”.
Regarding `CCO/N=C/Nc1ccc(Cl)cc1C` [N-(4-CHLORO-2-METHYLPHENYL)-N'-ETHOXYFORMIMIDAMIDE], the Activity is less than 25% in the data set on Botrytis cinerea [1]; 70% in the data set on Botrytis cinerea [2]; less than 25% in the data set with Botrytis cinerea [3]; less than 25% in the data set on Botrytis cinerea [4]; 11% with Phaseolus vulgaris.

Values taken from ChEMBL document CHEMBL3045758, “Quantitative Structure-Activity Relationships of Fungicidal N-Phenylformamidoximes” (J Pestic Sci, 1992).
